Reference: the NIST ThermoML archive (doi:10.1021/acs.jced.6b00577)
Numbers after ± are expanded uncertainties.

Conditions: Liquid, Frequency=8 MHz, Pulse-echo method

CCCC [butane]
Conditions | speed of sound [m/s]
320 K, 1101.2 kPa | 790.66 ± 0.46
320 K, 2101.9 kPa | 805.08 ± 0.47
320 K, 2104.1 kPa | 805.16 ± 0.47
320 K, 3102.5 kPa | 818.93 ± 0.47
320 K, 3104.8 kPa | 819.01 ± 0.47
320 K, 4103.2 kPa | 832.27 ± 0.48
320 K, 4105.5 kPa | 832.35 ± 0.48
320 K, 5103.8 kPa | 845.16 ± 0.48
320 K, 5106.1 kPa | 845.24 ± 0.48
320 K, 6106.8 kPa | 857.71 ± 0.49
320 K, 7107.5 kPa | 869.8 ± 0.49
320 K, 8108.2 kPa | 881.54 ± 0.5
320 K, 9108.9 kPa | 892.95 ± 0.5
320 K, 10109 kPa | 904.04 ± 0.51
320 K, 10110 kPa | 904.07 ± 0.51
320 K, 12611 kPa | 930.65 ± 0.52
320 K, 15113 kPa | 955.74 ± 0.53
320 K, 17615 kPa | 979.54 ± 0.53
320 K, 20116 kPa | 1002.2 ± 0.54
320 K, 25120 kPa | 1044.7 ± 0.56
320 K, 30123 kPa | 1084 ± 0.57
320 K, 35127 kPa | 1120.6 ± 0.59
320 K, 40130 kPa | 1155 ± 0.6
320 K, 45134 kPa | 1187.5 ± 0.62
320 K, 50137 kPa | 1218.4 ± 0.63
320 K, 50138 kPa | 1218.4 ± 0.63
320 K, 60144 kPa | 1276.1 ± 0.65
320 K, 70152 kPa | 1329.2 ± 0.67
320 K, 80158 kPa | 1378.5 ± 0.69
320 K, 90166 kPa | 1424.7 ± 0.71
320 K, 100173 kPa | 1468.2 ± 0.72
340 K, 1100.4 kPa | 678.12 ± 0.42
340 K, 2101.1 kPa | 696.22 ± 0.42
340 K, 2103.7 kPa | 696.27 ± 0.42
340 K, 3101.7 kPa | 713.3 ± 0.43
340 K, 3104.3 kPa | 713.36 ± 0.43
340 K, 4102.4 kPa | 729.53 ± 0.44
340 K, 4105 kPa | 729.59 ± 0.44
340 K, 5102.9 kPa | 745.01 ± 0.44
340 K, 5105.6 kPa | 745.07 ± 0.44
340 K, 6106.2 kPa | 759.88 ± 0.45
340 K, 7106.8 kPa | 774.1 ± 0.46
340 K, 8107.5 kPa | 787.79 ± 0.46
340 K, 9108.1 kPa | 801.01 ± 0.47
340 K, 10106 kPa | 813.73 ± 0.47
340 K, 10108 kPa | 813.77 ± 0.47
340 K, 12610 kPa | 844.03 ± 0.48
340 K, 15112 kPa | 872.22 ± 0.49
340 K, 17614 kPa | 898.7 ± 0.5
340 K, 20116 kPa | 923.7 ± 0.51
340 K, 25119 kPa | 970.09 ± 0.53
340 K, 30123 kPa | 1012.5 ± 0.55
340 K, 35126 kPa | 1051.8 ± 0.56
340 K, 40130 kPa | 1088.5 ± 0.58
340 K, 45133 kPa | 1122.9 ± 0.59
340 K, 50136 kPa | 1155.5 ± 0.6
340 K, 60145 kPa | 1216 ± 0.63
340 K, 70152 kPa | 1271.4 ± 0.65
340 K, 80159 kPa | 1322.7 ± 0.67
340 K, 90166 kPa | 1370.5 ± 0.69
340 K, 100173 kPa | 1415.5 ± 0.7
360 K, 2100.8 kPa | 582.29 ± 0.38
360 K, 2103.9 kPa | 582.37 ± 0.38
360 K, 3101.4 kPa | 604.48 ± 0.39
360 K, 3104.6 kPa | 604.56 ± 0.39
360 K, 4102 kPa | 625 ± 0.4
360 K, 4102.1 kPa | 625 ± 0.4
360 K, 4105.4 kPa | 625.09 ± 0.4
360 K, 5102.6 kPa | 644.17 ± 0.41
360 K, 5103 kPa | 644.18 ± 0.41
360 K, 5106.1 kPa | 644.25 ± 0.41
360 K, 6106.9 kPa | 662.28 ± 0.41
360 K, 7107.6 kPa | 679.33 ± 0.42
360 K, 8108.4 kPa | 695.54 ± 0.42
360 K, 9109.1 kPa | 711.01 ± 0.43
360 K, 10110 kPa | 725.83 ± 0.44
360 K, 12612 kPa | 760.45 ± 0.45
360 K, 15113 kPa | 792.21 ± 0.46
360 K, 17615 kPa | 821.66 ± 0.47
360 K, 20117 kPa | 849.23 ± 0.48
360 K, 25120 kPa | 899.75 ± 0.5
360 K, 30124 kPa | 945.47 ± 0.52
360 K, 35128 kPa | 987.41 ± 0.54
360 K, 40131 kPa | 1026.3 ± 0.55
360 K, 45135 kPa | 1062.7 ± 0.57
360 K, 50138 kPa | 1096.9 ± 0.58
360 K, 60145 kPa | 1160.2 ± 0.6
360 K, 70152 kPa | 1217.7 ± 0.63
360 K, 80159 kPa | 1270.8 ± 0.65
360 K, 90166 kPa | 1320.2 ± 0.67
360 K, 100173 kPa | 1366.5 ± 0.68
380 K, 2103.2 kPa | 456.13 ± 0.33
380 K, 3104.2 kPa | 488.08 ± 0.34
380 K, 4105 kPa | 515.93 ± 0.35
380 K, 5105.8 kPa | 540.88 ± 0.36
380 K, 6106.7 kPa | 563.62 ± 0.37
380 K, 7107.5 kPa | 584.62 ± 0.38
380 K, 8108.3 kPa | 604.2 ± 0.39
380 K, 9109.1 kPa | 622.6 ± 0.4
380 K, 10110 kPa | 639.98 ± 0.4
380 K, 12611 kPa | 679.85 ± 0.42
380 K, 15113 kPa | 715.71 ± 0.43
380 K, 17614 kPa | 748.49 ± 0.45
380 K, 20116 kPa | 778.8 ± 0.46
380 K, 25120 kPa | 833.69 ± 0.48
380 K, 30123 kPa | 882.73 ± 0.5
380 K, 35127 kPa | 927.32 ± 0.51
380 K, 40132 kPa | 968.4 ± 0.53
380 K, 45135 kPa | 1006.6 ± 0.54
380 K, 50139 kPa | 1042.4 ± 0.56
380 K, 60146 kPa | 1108.3 ± 0.58
380 K, 70153 kPa | 1167.9 ± 0.61
380 K, 80160 kPa | 1222.7 ± 0.63
380 K, 90167 kPa | 1273.5 ± 0.65
380 K, 100174 kPa | 1321.1 ± 0.67
400 K, 2704.8 kPa | 329.55 ± 0.28
400 K, 3105.1 kPa | 351.68 ± 0.29
400 K, 4105.8 kPa | 396.18 ± 0.31
400 K, 5106.4 kPa | 431.84 ± 0.32
400 K, 6107 kPa | 462.27 ± 0.33
400 K, 7107.7 kPa | 489.16 ± 0.34
400 K, 8108.4 kPa | 513.44 ± 0.35
400 K, 9109.4 kPa | 535.71 ± 0.36
400 K, 10110 kPa | 556.36 ± 0.37
400 K, 12612 kPa | 602.56 ± 0.39
400 K, 15114 kPa | 643.08 ± 0.4
400 K, 17616 kPa | 679.47 ± 0.42
400 K, 20118 kPa | 712.7 ± 0.43
400 K, 25121 kPa | 772.06 ± 0.45
400 K, 30125 kPa | 824.41 ± 0.47
400 K, 35128 kPa | 871.59 ± 0.49
400 K, 40132 kPa | 914.76 ± 0.51
400 K, 45135 kPa | 954.73 ± 0.53
400 K, 50138 kPa | 992.04 ± 0.54
400 K, 60145 kPa | 1060.3 ± 0.57
400 K, 70152 kPa | 1121.8 ± 0.59
400 K, 80159 kPa | 1178.1 ± 0.61
400 K, 90166 kPa | 1230.3 ± 0.63
400 K, 100173 kPa | 1278.9 ± 0.65
420 K, 4104.4 kPa | 244.51 ± 0.25
420 K, 4455.2 kPa | 271.52 ± 0.26
420 K, 4605 kPa | 281.85 ± 0.27
420 K, 4955.6 kPa | 302.47 ± 0.27
420 K, 5105.1 kPa | 310.48 ± 0.28
420 K, 5456.1 kPa | 327.76 ± 0.28
420 K, 5605.7 kPa | 334.63 ± 0.28
420 K, 6105.8 kPa | 355.8 ± 0.29
420 K, 6606.5 kPa | 374.83 ± 0.3
420 K, 7106.5 kPa | 392.2 ± 0.31
420 K, 8107.2 kPa | 423.27 ± 0.32
420 K, 9108 kPa | 450.7 ± 0.33
420 K, 10109 kPa | 475.45 ± 0.34
420 K, 12611 kPa | 529.12 ± 0.36
420 K, 15112 kPa | 574.77 ± 0.38
420 K, 17615 kPa | 614.98 ± 0.39
420 K, 20117 kPa | 651.2 ± 0.41
420 K, 25120 kPa | 714.99 ± 0.43
420 K, 30124 kPa | 770.53 ± 0.45
420 K, 35127 kPa | 820.17 ± 0.47
420 K, 40131 kPa | 865.3 ± 0.49
420 K, 45134 kPa | 906.89 ± 0.51
420 K, 50138 kPa | 945.57 ± 0.52
420 K, 55142 kPa | 981.83 ± 0.54
420 K, 60145 kPa | 1016 ± 0.55
420 K, 70152 kPa | 1079.3 ± 0.57
420 K, 80159 kPa | 1137 ± 0.6
420 K, 90166 kPa | 1190.3 ± 0.62
420 K, 100173 kPa | 1240 ± 0.64
430 K, 5105.6 kPa | 236.47 ± 0.25
430 K, 5355.3 kPa | 258.17 ± 0.26
430 K, 5606 kPa | 273.03 ± 0.26
430 K, 5855.6 kPa | 287.25 ± 0.27
430 K, 6106.3 kPa | 300.07 ± 0.27
430 K, 6356.3 kPa | 311.9 ± 0.28
430 K, 6606.6 kPa | 323.01 ± 0.28
430 K, 7106.8 kPa | 343.37 ± 0.29
430 K, 7106.9 kPa | 343.37 ± 0.29
430 K, 7607.2 kPa | 361.85 ± 0.29
430 K, 8107.5 kPa | 378.83 ± 0.3
430 K, 8607.8 kPa | 394.6 ± 0.31
430 K, 9108.1 kPa | 409.36 ± 0.31
430 K, 9608.5 kPa | 423.28 ± 0.32
430 K, 10109 kPa | 436.47 ± 0.32
430 K, 11110 kPa | 461 ± 0.33
430 K, 12110 kPa | 483.55 ± 0.34
430 K, 13111 kPa | 504.47 ± 0.35
430 K, 14112 kPa | 524.06 ± 0.36
430 K, 15113 kPa | 542.49 ± 0.36
430 K, 17614 kPa | 584.59 ± 0.38
430 K, 20116 kPa | 622.27 ± 0.4
